1 compound from publication PMC9898036, “VIP152 is a selective CDK9 inhibitor with pre-clinical in vitro and in vivo efficacy in chronic lymphocytic leukemia” (Leukemia, 2022) can be followed below.

One test concerns the target Histamine H2 (Homo sapiens, UniProt P25021). Kind of test: Eurofins Diversity Panel. Particulars: hum, Conc. 10 μM. Format: binding.
The target of a further test is CSF1R-autoinhibited (Homo sapiens, UniProt P07333). Kind of test: KINOMEscan: CSF1R-autoinhibited. Format: binding. Particulars: 1000 nM, read-out: Percent Control.
The target in a further test is MTOR (Homo sapiens, UniProt P42345). Kind of test: KINOMEscan: MTOR. Particulars: 1000 nM, read-out: Percent Control. Format: binding.
A further test concerns the target Transporter, GABA (Rattus norvegicus, UniProt P23978). Kind of test: Eurofins Diversity Panel. Particulars: Conc. 10 μM. Format: binding.
A further test has as its target MST1R (Homo sapiens, UniProt Q04912). The experiment in a line: KINOMEscan: MST1R. Format: binding. Particulars: 1000 nM, read-out: Percent Control.
Another test concerns the target DYRK1A (Homo sapiens, UniProt Q13627). Kind of test: KINOMEscan: DYRK1A. Format: binding. To be noted: 1000 nM, read-out: Percent Control.
The target of the next test is MUSK (Homo sapiens, UniProt O15146). Kind of test: KINOMEscan: MUSK. Format: binding. Particulars: 1000 nM, read-out: Percent Control.
The target in another test is HIPK4 (Homo sapiens, UniProt Q8NE63). The experiment in a line: KINOMEscan: HIPK4. Format: binding. Particulars: 1000 nM, read-out: Percent Control.
Another test concerns the target CSNK1E (Homo sapiens, UniProt P49674). Kind of test: KINOMEscan: CSNK1E. Format: binding. To be noted: 1000 nM, read-out: Percent Control.
The next test deals with ERK5 (Homo sapiens, UniProt Q13164). The experiment in a line: KINOMEscan: ERK5. Format: binding. To be noted: 1000 nM, read-out: Percent Control.
In test [1] the target is RSK3(Kin.Dom.2-C-terminal) (Homo sapiens, UniProt Q15349). The experiment in a line: KINOMEscan: RSK3(Kin.Dom.2-C-terminal). Format: binding. To be noted: 100 nM, read-out: Percent Control.
RSK3(Kin.Dom.2-C-terminal), sequence (Q15349 389-733 limits assumed): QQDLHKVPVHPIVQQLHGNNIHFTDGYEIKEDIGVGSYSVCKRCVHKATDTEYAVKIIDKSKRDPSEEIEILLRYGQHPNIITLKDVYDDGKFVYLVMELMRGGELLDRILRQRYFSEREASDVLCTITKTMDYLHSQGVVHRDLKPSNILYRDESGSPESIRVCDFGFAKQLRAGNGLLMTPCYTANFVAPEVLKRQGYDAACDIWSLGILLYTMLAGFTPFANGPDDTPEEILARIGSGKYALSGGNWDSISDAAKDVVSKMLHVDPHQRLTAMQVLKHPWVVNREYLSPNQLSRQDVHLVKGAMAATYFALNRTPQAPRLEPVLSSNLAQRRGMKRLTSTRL
Another test relates to Purinergic P2Y. The experiment in a line: Eurofins Diversity Panel. Format: binding. Particulars: rat, Conc. 10 μM.
A further test addresses Adenosine A2A (Homo sapiens, UniProt P29274). Kind of test: Eurofins Diversity Panel. Format: binding. To be noted: hum, Conc. 10 μM.
The next test addresses CDC2L1 (Homo sapiens, UniProt P21127). Kind of test: KINOMEscan: CDC2L1. Format: binding. To be noted: 1000 nM, read-out: Percent Control.
The test system of a further test is HG-3 cell line. Kind of test: Nuclear CDK9 co-immunoprecipitation (LC-MS/MS proteomics, western blot). Format: cell-based, human. As to the method:
HG-3 cell line was treated with 1 µM VIP152 or DMSO for 2 h; nuclei were isolated using the Nuclear Complex Co-IP Kit (Active Motif) according to the manufacturer’s protocol. Nuclear lysate was immunoprecipitated using a CDK9 antibody (ab239364 - Abcam) or isotype control (3900 S – Cell Signaling Technology) with Dynabeads™ Protein G Immunoprecipitation Kit (10007D – ThermoFisher Scientific). Beads were submitted for proteomics to the Ohio State University Proteomics Center at the Campus Chemical Instrument Center. Full proteomic methods are available in the supplementary methods section.
Having observed the transcriptomic effects of VIP152 inhibition, we hypothesized a change in the P-TEFb complex would occur validating the mechanism of this agent. Previously, Dow et al. described changes in P-TEFb nuclear complexes with flavopiridol treatment; specifically, they observed loss of nuclear speckles of P-TEFb complexes containing HEXIM1, a major component of the 7SK-RNA complex that inhibits P-TEFb. We observed an increase in the 42 kDa and 55 kDa isoforms of CDK9, as well as Cyclin T1, in the nuclear fraction following treatment (Fig. 4A, B). […] Next, a nuclear immunoprecipitation of CDK9 after a two-hour drugging in the HG-3 cell line (n = 3) was performed, followed by liquid chromatography with tandem mass spectrometry (LC-MS/MS). We detected 226 differentially co-localized proteins and again observed an enrichment in the treated fraction for P-TEFb (Fig. 4B, C). […] These findings were validated via western blot in the MEC-1 and HG-3 cell lines (Supplementary Fig. 9). […] Finally, to appreciate the effect of inhibition on the association with the inhibitory 7SK-RNA complex, we performed reciprocal nuclear co-immunoprecipitation of CDK9 and HEXIM1 (Fig. 4E and Supplementary Fig. 10). […] This decrease in 7SK association due to inhibition is consistent with other work characterizing the disruption of the 7SK complex as a result of cellular stresses.
MSGF+ search engine against a reviewed UniProt human proteome (downloaded 12/07/2020) containing the cRAP and MaxQuant contaminant FASTAs32. Search parameters included: full trypsin digest, 1 missed cleavage, carbamidomethylation of cysteine as a fixed modification and oxidation of methionine as a variable modification with precursor and fragment mass tolerances of 10 ppm and 5 Da. PSM rescoring was performed with Percolator and protein inference was performed with Epifany across all samples, setting peptide and protein false discovery rates to 0.05. […]
All data analysis was performed with R (version 3.6.2) with various packages and is included in supplemental material (zipped File_S1). […] Data was quantile normalized, and significance (p-value < 0.05) determined by a modified exact test. […]

For the next test, the target named is YANK3 (Homo sapiens, UniProt Q86UX6). The experiment in a line: KINOMEscan: YANK3. Format: binding. Particulars: 100 nM, read-out: Percent Control.
YANK3, sequence (Q86UX6 whole entry): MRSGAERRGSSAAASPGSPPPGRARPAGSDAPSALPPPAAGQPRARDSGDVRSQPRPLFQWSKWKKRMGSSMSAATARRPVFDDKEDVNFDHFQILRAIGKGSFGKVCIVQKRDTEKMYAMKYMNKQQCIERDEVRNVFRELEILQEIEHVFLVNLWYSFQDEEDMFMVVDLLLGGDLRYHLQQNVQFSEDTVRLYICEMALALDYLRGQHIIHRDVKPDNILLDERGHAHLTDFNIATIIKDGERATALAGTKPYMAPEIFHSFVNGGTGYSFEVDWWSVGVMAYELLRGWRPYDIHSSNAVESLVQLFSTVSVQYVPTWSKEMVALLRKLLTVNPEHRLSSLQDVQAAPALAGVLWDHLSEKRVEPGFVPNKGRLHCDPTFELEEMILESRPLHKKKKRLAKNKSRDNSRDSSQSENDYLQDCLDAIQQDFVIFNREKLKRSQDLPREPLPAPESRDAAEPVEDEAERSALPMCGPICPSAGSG
In another test the target is TGFBR2 (Homo sapiens, UniProt P37173). Kind of test: KINOMEscan: TGFBR2. Format: binding. Particulars: 100 nM, read-out: Percent Control.
TGFBR2, sequence (P37173 23-567): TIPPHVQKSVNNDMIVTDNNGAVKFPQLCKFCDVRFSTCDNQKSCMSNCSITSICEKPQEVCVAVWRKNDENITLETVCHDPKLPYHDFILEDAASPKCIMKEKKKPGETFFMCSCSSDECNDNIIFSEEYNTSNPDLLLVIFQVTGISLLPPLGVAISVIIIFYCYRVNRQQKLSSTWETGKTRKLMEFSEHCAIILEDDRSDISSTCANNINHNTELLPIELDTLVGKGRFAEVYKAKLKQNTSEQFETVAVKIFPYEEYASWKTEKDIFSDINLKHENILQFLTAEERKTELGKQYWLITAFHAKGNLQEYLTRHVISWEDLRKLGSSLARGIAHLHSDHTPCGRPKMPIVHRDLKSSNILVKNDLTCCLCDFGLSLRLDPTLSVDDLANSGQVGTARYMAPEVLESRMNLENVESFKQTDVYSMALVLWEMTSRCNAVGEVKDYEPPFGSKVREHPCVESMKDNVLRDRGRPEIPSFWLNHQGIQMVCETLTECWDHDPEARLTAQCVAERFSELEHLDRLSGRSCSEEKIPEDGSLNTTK
For test [2], the target named is Transporter, Norepinephrine (NET) (Homo sapiens, UniProt P23975). Kind of test: Eurofins Diversity Panel. Format: binding. Particulars: hum, Conc. 10 μM.
Transporter, Norepinephrine (NET), sequence (P23975 whole entry): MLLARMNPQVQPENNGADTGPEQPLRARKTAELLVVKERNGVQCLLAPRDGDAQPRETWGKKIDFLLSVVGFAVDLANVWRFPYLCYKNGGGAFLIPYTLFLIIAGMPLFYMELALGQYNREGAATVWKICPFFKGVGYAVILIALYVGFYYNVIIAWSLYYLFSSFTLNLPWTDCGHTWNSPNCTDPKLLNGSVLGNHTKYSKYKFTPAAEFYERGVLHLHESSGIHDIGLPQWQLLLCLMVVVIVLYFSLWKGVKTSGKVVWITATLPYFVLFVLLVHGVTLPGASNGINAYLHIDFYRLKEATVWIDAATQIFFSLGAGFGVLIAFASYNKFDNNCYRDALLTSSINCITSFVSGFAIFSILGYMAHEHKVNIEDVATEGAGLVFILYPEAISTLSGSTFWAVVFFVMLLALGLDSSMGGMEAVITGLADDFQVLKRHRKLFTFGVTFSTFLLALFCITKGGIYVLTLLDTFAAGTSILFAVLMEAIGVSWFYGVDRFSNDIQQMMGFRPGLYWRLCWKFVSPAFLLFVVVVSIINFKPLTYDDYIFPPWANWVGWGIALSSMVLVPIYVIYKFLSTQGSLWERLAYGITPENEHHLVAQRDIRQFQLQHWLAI
Another test deals with CAMK1B (Homo sapiens, UniProt Q6P2M8). Kind of test: KINOMEscan: CAMK1B. Particulars: 1000 nM, read-out: Percent Control. Format: binding.
Another test deals with TNK2 (Homo sapiens, UniProt Q07912). The experiment in a line: KINOMEscan: TNK2. Particulars: 100 nM, read-out: Percent Control. Format: binding.

CSNK1E, sequence (P49674 whole entry): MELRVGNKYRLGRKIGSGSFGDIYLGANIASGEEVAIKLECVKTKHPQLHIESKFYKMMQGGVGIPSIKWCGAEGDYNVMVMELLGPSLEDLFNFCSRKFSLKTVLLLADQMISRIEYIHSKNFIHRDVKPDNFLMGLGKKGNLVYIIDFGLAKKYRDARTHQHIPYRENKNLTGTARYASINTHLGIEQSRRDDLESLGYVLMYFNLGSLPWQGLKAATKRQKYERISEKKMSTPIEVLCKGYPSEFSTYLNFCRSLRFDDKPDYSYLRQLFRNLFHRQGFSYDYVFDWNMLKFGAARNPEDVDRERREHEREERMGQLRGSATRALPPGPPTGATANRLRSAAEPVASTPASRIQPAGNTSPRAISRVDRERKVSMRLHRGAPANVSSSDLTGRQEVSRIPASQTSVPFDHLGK
Adenosine A2A, sequence (P29274 whole entry): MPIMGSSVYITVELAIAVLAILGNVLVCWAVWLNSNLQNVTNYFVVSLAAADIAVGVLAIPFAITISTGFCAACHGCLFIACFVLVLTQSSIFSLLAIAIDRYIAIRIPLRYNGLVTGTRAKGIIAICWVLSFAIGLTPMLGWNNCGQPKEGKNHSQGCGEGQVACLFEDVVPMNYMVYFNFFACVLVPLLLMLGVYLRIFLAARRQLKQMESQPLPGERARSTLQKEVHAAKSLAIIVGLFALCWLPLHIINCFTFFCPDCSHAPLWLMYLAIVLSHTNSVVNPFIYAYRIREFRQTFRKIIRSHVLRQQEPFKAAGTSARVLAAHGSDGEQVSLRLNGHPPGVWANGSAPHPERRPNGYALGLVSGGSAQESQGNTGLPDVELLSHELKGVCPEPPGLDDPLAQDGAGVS
MST1R, sequence (Q04912 25-1400): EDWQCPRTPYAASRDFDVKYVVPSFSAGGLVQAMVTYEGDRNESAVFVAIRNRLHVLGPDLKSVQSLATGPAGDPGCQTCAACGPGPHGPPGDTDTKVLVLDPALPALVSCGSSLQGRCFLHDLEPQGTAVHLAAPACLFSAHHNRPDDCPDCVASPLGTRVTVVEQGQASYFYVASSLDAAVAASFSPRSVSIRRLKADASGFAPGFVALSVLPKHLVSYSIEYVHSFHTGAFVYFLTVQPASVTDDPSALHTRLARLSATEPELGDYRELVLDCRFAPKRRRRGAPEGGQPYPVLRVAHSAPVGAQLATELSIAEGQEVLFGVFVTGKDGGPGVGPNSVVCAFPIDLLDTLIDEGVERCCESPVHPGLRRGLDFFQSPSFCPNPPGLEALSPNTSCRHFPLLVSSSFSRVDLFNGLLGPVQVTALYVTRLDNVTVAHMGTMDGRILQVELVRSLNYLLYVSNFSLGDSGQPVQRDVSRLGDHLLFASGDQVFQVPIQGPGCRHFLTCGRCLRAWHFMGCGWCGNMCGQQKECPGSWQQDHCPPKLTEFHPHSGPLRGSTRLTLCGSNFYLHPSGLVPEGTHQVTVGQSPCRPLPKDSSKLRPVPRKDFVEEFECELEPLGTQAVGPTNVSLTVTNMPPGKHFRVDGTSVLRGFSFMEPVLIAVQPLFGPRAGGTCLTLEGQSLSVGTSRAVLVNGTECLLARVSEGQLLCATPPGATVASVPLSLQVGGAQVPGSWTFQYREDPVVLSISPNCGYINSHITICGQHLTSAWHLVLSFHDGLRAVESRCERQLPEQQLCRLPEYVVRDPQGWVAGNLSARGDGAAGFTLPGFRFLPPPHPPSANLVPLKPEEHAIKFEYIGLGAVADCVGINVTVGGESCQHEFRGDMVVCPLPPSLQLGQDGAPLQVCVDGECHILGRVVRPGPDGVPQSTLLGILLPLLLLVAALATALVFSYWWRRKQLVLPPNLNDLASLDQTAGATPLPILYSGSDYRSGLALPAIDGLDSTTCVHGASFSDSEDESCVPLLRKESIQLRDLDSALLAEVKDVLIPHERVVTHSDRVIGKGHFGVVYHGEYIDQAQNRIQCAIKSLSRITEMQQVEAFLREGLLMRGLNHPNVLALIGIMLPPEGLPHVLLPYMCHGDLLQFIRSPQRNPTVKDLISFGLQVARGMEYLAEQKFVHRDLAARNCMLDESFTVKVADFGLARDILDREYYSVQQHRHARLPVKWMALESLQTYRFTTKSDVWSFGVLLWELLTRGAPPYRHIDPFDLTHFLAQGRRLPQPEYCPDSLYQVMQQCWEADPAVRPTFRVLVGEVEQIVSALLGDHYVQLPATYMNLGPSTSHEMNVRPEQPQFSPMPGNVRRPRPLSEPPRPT

For the compound `COc1cc(F)ccc1-c1cc(Nc2cc(CS(C)(=N)=O)ccn2)ncc1F` (centres unmarked) [VIP152], the inhibition at 10 µM against Histamine H2 was 23%; on Transporter, GABA it was -20%; against Adenosine A2A, 22%; in test [2] it was 37%. Besides, the remaining binding at 1 µM worked out at 73% at CSF1R-autoinhibited; 100% on MTOR; 70% at MST1R; 12% at DYRK1A; 58% at MUSK; 68% at HIPK4. The remaining binding at 1 µM was determined as 89% at CSNK1E, 95% on ERK5, 96% on CDC2L1 and 98% at CAMK1B. Also, the remaining binding at 0.1 µM is 100% in [1], 99% at YANK3, 100% on TGFBR2 and 100% on TNK2. Also, in the test with Purinergic P2Y, the “% Inh.” value was determined as 8%. The “association with transcription-associated machinery (SPT6H and IWS1) and RPB3” value with HG-3 cell line (1 µM, 2 h, nuclear IP of CDK9) is “decreased association”. The compound further displayed a differentially co-localized proteins in the test with HG-3 cell line (1 µM, 2 h, nuclear IP of CDK9, LC-MS/MS) of 226. Also, in the test on HG-3 cell line (1 µM, 2 h, nuclear IP of CDK9, proteomics), the “association with DDX21, Fold Change” value was 1.47. Also, the “association of CDK9 with 7SK-RNA complex components (HEXIM1, MEPCE, LARP7)” value in the test with HG-3 cell line (HG-3 and MEC-1, reciprocal nuclear co-immunoprecipitation of CDK9 and HEXIM1) is listed as “decreased association”.
